Assay in all cases: DTP human tumour cell line panel, 48 h
Test [1] deals with ACHN renal.
In test [2] the test system is SK-MEL-2 melanoma.
For test [3], the system named is OVCAR-3 ovarian.
For test [4], the system named is RXF 393 renal.
The subject of test [5] is HCT-116 colon.
Test [6] concerns MALME-3M melanoma.
Test [7] relates to CAKI-1 renal.
The subject of test [8] is HOP-62 NSCLC.
Test [9] concerns NCI-H522 lung.
Test [10] relates to A498 renal.

The values below come from PubChem BioAssay (NCI).

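All cell lines were grown in 96-well plates and treated with compound for 48 hours. At the GI50, growth is halved. TGI marks complete inhibition of growth.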

What is called GI50 is the concentration at which growth is held to half of that of the control. In general, TGI refers to the concentration at which net growth stops. A high value points to lower sensitivity of the cells.

`Cn1nc(-c2ccc(Cl)cc2)nc2c(=O)n(C)c(=O)nc1-2`: the GI50 in test [1] was 1.13 µM; in [2], 1.5 µM; in test [3], 0.275 µM; in test [4], 0.781 µM; in test [5] it was 0.32 µM; in test [6], 0.382 µM. In addition, the GI50 in [7] was 1.87 µM; in [8], 0.886 µM; in [9], 0.864 µM; in [10], 0.949 µM. For the same compound, the total growth inhibition concentration (TGI) in test [1] came to 3.1 µM; in [2] it was 9.29 µM; in test [3], 1.2 µM; in test [4], 1.57 µM; in test [5] it was 1.44 µM; in [6], 1.14 µM. Besides, the TGI was determined as 6.61 µM in [7], 1.75 µM in test [8], 1.67 µM in test [9] and 2.24 µM in test [10].
For `O=[N+]([O-])c1ccc(C2CC(c3ccccc3Cl)=Nc3ccccc3S2=O)cc1` (stereo not given), the TGI stood at 4.26 µM in test [1]; 51.7 µM in test [2]; 8.12 µM in test [3]; 4.05 µM in test [4]; 3.49 µM in [5]; 32 µM in test [6]. Besides, the TGI in [7] was found to be 4.33 µM; in test [8], 23.4 µM; in test [9], 3.28 µM; in [10], 6.03 µM.
With `N[C@@H]1C(=O)N2C(C(=O)OC(c3ccccc3)c3ccccc3)=C(CCl)CS[C@H]12`, the GI50 is 40.2 µM in [1]; 54.2 µM in test [2]; 26 µM in [3]; 26.4 µM in test [4]; 27.1 µM in test [5]; more than 74.5 µM in [6]. The GI50 in test [7] is more than 100 µM; in [8], 63.4 µM; in [9], 31 µM; in [10], more than 100 µM. Moreover, the TGI in test [1] was more than 100 µM; in test [2], more than 100 µM; in test [3], 75.6 µM; in test [4] it was 63.7 µM; in [5] it was more than 76.6 µM; in test [6], more than 100 µM. The TGI in test [7] was more than 100 µM; in test [8], more than 100 µM; in test [9], more than 84.7 µM; in test [10] it was more than 100 µM.
As for `Clc1ccc(-c2nnc(-c3cccc4ccccc34)o2)cc1Cl`, the TGI in [1], in test [2], in test [3], in test [4], in test [5] and in test [6] was more than 100 µM throughout. Moreover, the TGI in test [7], in [8], in [9] and in test [10] was more than 100 µM throughout.
Regarding `Cc1nnc2c3nnc(C)n3c3ccccc3n12`, the TGI in [1], in test [2], in [3], in test [4], in test [5] and in test [6] was more than 100 µM each time. In addition, the TGI in test [7], in [8], in test [9] and in [10] was more than 100 µM throughout.
For `CCN(Cc1ccc(F)cc1)c1ccc(CO)c(C)c1`, the GI50 in test [1] was 12.5 µM; in test [2] it was 7.58 µM; in test [3], 11.1 µM; in [4] it was 8.47 µM; in test [5] it was 2.02 µM; in test [6], 5.58 µM. The GI50 in test [7] was 3.28 µM; in [8], 17.7 µM; in test [9] it was 8.52 µM; in test [10] it was 0.216 µM. The TGI stood at 39.4 µM in test [1]; 22.8 µM in [2]; 24.1 µM in test [3]; 23.3 µM in test [4]; 17.6 µM in test [5]; 17.3 µM in test [6]. Further, the TGI in test [7] was found to be 25.5 µM; in test [8] it was 39.1 µM; in [9], 22 µM; in [10], 1.14 µM.
As to `COc1cccc(/C=N/NC(=S)NC2CC3CCC2C3)c1O` (stereo not given), the GI50 is 2.5 µM in test [1]; 18.2 µM in test [2]; 3.07 µM in test [3]; 13 µM in test [4]; 4.01 µM in test [5]; 5.65 µM in test [6]. Moreover, the GI50 is 3.33 µM in test [7], 3.01 µM in [8], 11.5 µM in test [9] and 3.18 µM in test [10]. The TGI in [1] was determined as 8.14 µM; in test [2], 34.9 µM; in test [3], 9.45 µM; in [4], 28.1 µM; in test [5], 15.8 µM; in test [6] it was 20 µM. The TGI in test [7] was determined as 15.9 µM; in test [8] it was 10 µM; in [9], 37.6 µM; in test [10], 12.9 µM.
